Starred links: 1 amine or outer side, 2 acyl side, 3 side chain; linkers in the order of their positions; H or OH if unused. Positions of bridges follow the written chain, without caps; N, C: chain ends. Non-standard residues stand in square brackets, D forms with d. Residues, ends and D or L forms follow the SMILES beside them. *: point of attachment. hPhe(3-Cl-4-CF3) = N[C@@H](CCc1ccc(C(F)(F)F)c(Cl)c1)C(=O)O; hPhe(3-F,4-CF3) = N[C@@H](CCc1ccc(C(F)(F)F)c(F)c1)C(=O)O; NEtAsp = CCN([C@@H](CC(=O)[*:3])C(=O)[*:2])[*:1]; 3Oxa8azabicyclo(3.2.1)octane = C1CC2COCC1N2*; NMeAbu(4,4,4-F3) = CN[C@@H](CC(F)(F)F)C(=O)O; NMePhe(3-Me) = CN[C@@H](Cc1cccc(C)c1)C(=O)O; X6 = CCN([C@@H](CC1CCCCC1)C(=O)[*:2])[*:1]; NMeAla(cPent) = CN[C@@H](CC1CCCC1)C(=O)O; NMeGly(cPent) = CN[C@H](C(=O)O)C1CCCC1; NMe4Pal = CN[C@@H](Cc1ccncc1)C(=O)O; NMeGly(cBu) = CN[C@H](C(=O)O)C1CCC1; NMeCha = CN[C@@H](CC1CCCCC1)C(=O)O; NMeChg = CN[C@H](C(=O)O)C1CCCCC1; NMeD = CN[C@@H](CC(=O)O)C(=O)O; NMeL = CN[C@@H](CC(C)C)C(=O)O; NMeNva = CCC[C@H](NC)C(=O)O; NMeV = CN[C@H](C(=O)O)C(C)C; Trifluoroethyl = FC(F)(F)C*; d(β3hA) = C[C@@H](N)CC(=O)O; NMeS = CN[C@@H](CO)C(=O)O; Morpholide = C1CN(*)CCO1; NMeA = CN[C@@H](C)C(=O)O; Piperidide = C1CCN(*)CC1; Ac5c = NC1(C(=O)O)CCCC1; Aze = O=C(O)[C@@H]1CCN1; Ac4c = NC1(C(=O)O)CCC1; Sar = CNCC(=O)O; Propyl = CCC*
How the values were obtained:
[1] = target: T1, Kras and SOS1 (biotin-tagged human Kras loaded with GDP, His-tagged human SOS1) (Homo sapiens, UniProt P01116, G12D); assay: Protein-protein interaction inhibition between Kras and SOS1 (KrasGl2D-SOS PPI) using AlphaScreen; type: binding; conditions: AlphaScreen; biotin-tagged human Kras loaded with GDP, His-tagged human SOS1; read-out: KRAS G12D-SOS PPI IC50
T1 construct: made in house; host or cells: E. coli (stated for Kras only)
T1 sequence (P01116 1-188 isoform P01116-2 G12D): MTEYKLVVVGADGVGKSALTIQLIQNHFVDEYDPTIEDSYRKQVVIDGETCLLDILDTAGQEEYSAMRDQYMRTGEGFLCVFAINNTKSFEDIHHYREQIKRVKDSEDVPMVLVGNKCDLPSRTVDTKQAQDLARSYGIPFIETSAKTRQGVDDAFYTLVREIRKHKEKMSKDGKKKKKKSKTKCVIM
Summary of the method: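 Binding between SOS1 and Kras is detected as bead-proximity luminescence: illuminate Ni-conjugated donors (680 nm), collect 520-620 nm emission from streptavidin-conjugated acceptors; Kras carries biotin and GDP loaded after purification, SOS1 carries a His tag.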

[2] = system: Human pancreatic cancer cell line AsPC-1; assay: Measurement of AsPC-1 cell growth inhibition (AsPC-1 CGI); type: cell-based; conditions: 96 h
Summary of the method: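 AsPC-1 cells in 15% FBS RPMI-1640 were exposed to test compound for 96 hours at 37° C, with CellTiter-Glo as endpoint.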

Row | Compound | IC50 [1] | IC50 [2]
1 | CCCOC[C@H]1C(=O)N(C)CC(=O)N[C@@H](CCc2ccc(C(F)(F)F)c(Cl)c2)C(=O)N2CCC[C@H]2C(=O)NC2(CCCC2)C(=O)N(C)[C@@H](C2CCCCC2)C(=O)N(C)[C@H](C(=O)N2CCOCC2)CC(=O)N(C)[C@@H](CC(F)(F)F)C(=O)N[C@@H]([C@@H](C)CC)C(=O)N(C)CC(=O)N(C)CC(=O)N1C [Compound 445] ([NMeAbu(4,4,4-F3)]I[Sar][Sar][NMeS](Propyl)[Sar][hPhe(3-Cl-4-CF3)]P[Ac5c][NMeChg][NMeD]-Morpholide; lactam N-11) | 0.00067 µM | 0.1 to 0.5 µM
2 | CC[C@H](C)[C@@H]1NC(=O)[C@H](CC(C)C)N(C)C(=O)C[C@@H](C(=O)N(C)C)N(C)C(=O)[C@H](C2CCCC2)N(C)C(=O)C2(CCCC2)NC(=O)[C@H](Cc2cccc(C)c2)N(C)C(=O)[C@H](CCc2ccc(C(F)(F)F)c(Cl)c2)NC(=O)CN(C)C(=O)[C@H](CC2CCCCC2)N(C)C(=O)[C@@H]2CCN2C(=O)[C@H](C)N(C)C1=O [Compound 449] ([NMeL]I[NMeA][Aze][NMeCha][Sar][hPhe(3-Cl-4-CF3)][NMePhe(3-Me)][Ac5c][NMeGly(cPent)][NMeD]-NMe2; lactam N-11) | 0.03 µM | 0.1 to 0.5 µM
3 | CC[C@H](C)[C@@H]1NC(=O)[C@H](C2CCCCC2)N(C)C(=O)C[C@@H](C)NC(=O)[C@H](C(C)C)N(C)C(=O)C2(CCCC2)NC(=O)[C@@H]2CCCN2C(=O)[C@H](CCc2ccc(C(F)(F)F)c(Cl)c2)NC(=O)CN(C)C(=O)[C@H](CC2CCCCC2)N(C)C(=O)CN(C)C(=O)CN(C)C1=O [Compound 456] (cyclo([Ac5c][NMeV][d(β3hA)][NMeChg]I[Sar][Sar][NMeCha][Sar][hPhe(3-Cl-4-CF3)]P)) | 0.034 µM | 0.1 to 0.5 µM
4 | CC[C@H](C)[C@@H]1NC(=O)[C@H](C2CCC2)N(C)C(=O)C[C@@H](C(=O)N2C3CCC2COC3)N(C)C(=O)[C@H](C2CCCCC2)N(C)C(=O)C2(CCCC2)NC(=O)[C@@H]2CCCN2C(=O)[C@H](CCc2ccc(C(F)(F)F)c(Cl)c2)NC(=O)CN(C)C(=O)[C@H](CC2CCCC2)N(C)C(=O)CN(C)C(=O)CN(C)C1=O [Compound 461] ([NMeGly(cBu)]I[Sar][Sar][NMeAla(cPent)][Sar][hPhe(3-Cl-4-CF3)]P[Ac5c][NMeChg][NMeD]-{3Oxa8azabicyclo(3.2.1)octane}; lactam N-11) | 0.0012 µM | 0.1 to 0.5 µM
5 | CCC[C@H]1C(=O)NC2(CCCC2)C(=O)N(C)[C@@H](C2CCCCC2)C(=O)N(C)[C@H](C(=O)N2CCCCC2)CC(=O)N(C)[C@@H](CC(C)C)C(=O)N[C@@H]([C@@H](C)CC)C(=O)N(C)CC(=O)N2CC[C@H]2C(=O)N(C)[C@@H](CC2CCCCC2)C(=O)N(C)CC(=O)N[C@@H](CCc2ccc(C(F)(F)F)c(Cl)c2)C(=O)N1C [Compound 478] ([NMeL]I[Sar][Aze][NMeCha][Sar][hPhe(3-Cl-4-CF3)][NMeNva][Ac5c][NMeChg][NMeD]-Piperidide; lactam N-11) | 0.003 µM | 0.1 to 0.5 µM
6 | CC[C@H](C)[C@@H]1NC(=O)[C@H](CC(C)C)N(C)C(=O)C[C@@H](C(=O)N2CCCCC2)N(C)C(=O)[C@H](C2CCCCC2)N(C)C(=O)C2(CCCC2)NC(=O)[C@H](Cc2ccncc2)N(C)C(=O)[C@H](CCc2ccc(C(F)(F)F)c(Cl)c2)NC(=O)CN(C)C(=O)[C@H](CC2CCCCC2)N(C)C(=O)[C@@H]2CCN2C(=O)CN(C)C1=O [Compound 480] ([NMeL]I[Sar][Aze][NMeCha][Sar][hPhe(3-Cl-4-CF3)][NMe4Pal][Ac5c][NMeChg][NMeD]-Piperidide; lactam N-11) | 0.0014 µM | 0.1 to 0.5 µM
7 | CC[C@H](C)[C@@H]1NC(=O)[C@H](C)N(C)C(=O)C[C@@H](C(=O)N2CCCCC2)N(C)C(=O)[C@H](C2CCCCC2)N(C)C(=O)C2(CCCC2)NC(=O)[C@@H]2CCCN2C(=O)[C@H](CCc2ccc(C(F)(F)F)c(F)c2)NC(=O)CN(C)C(=O)[C@H](CC2CCCCC2)N(C)C(=O)CN(C)C(=O)CN(C)C1=O [Compound 491] ([NMeA]I[Sar][Sar][NMeCha][Sar][hPhe(3-F,4-CF3)]P[Ac5c][NMeChg][NMeD]-Piperidide; lactam N-11) | 0.00035 µM | 0.1 to 0.5 µM
8 | CC[C@H](C)[C@@H]1NC(=O)[C@H](COCC(F)(F)F)N(C)C(=O)C[C@@H](C(=O)N2CCCCC2)N(C)C(=O)[C@H](C2CCCCC2)N(C)C(=O)C2(CCCC2)NC(=O)[C@@H]2CCCN2C(=O)[C@H](CCc2ccc(C(F)(F)F)c(Cl)c2)NC(=O)CN(C)C(=O)[C@H](CC2CCCCC2)N(C)C(=O)CN(C)C(=O)CN(C)C1=O [Compound 518] ([NMeS](Trifluoroethyl)I[Sar][Sar][NMeCha][Sar][hPhe(3-Cl-4-CF3)]P[Ac5c][NMeChg][NMeD]-Piperidide; lactam N-11) | 0.00067 µM | 0.05 to 0.1 µM
9 | CC[C@H](C)[C@@H]1NC(=O)[C@H](CC(C)C)N(C)C(=O)C[C@@H](C)NC(=O)[C@H](C(C)C)N(C)C(=O)C2(CCC2)NC(=O)[C@@H]2CCCN2C(=O)[C@H](CCc2ccc(C(F)(F)F)c(Cl)c2)NC(=O)CN(C)C(=O)[C@H](CC2CCCCC2)N(C)C(=O)CN(C)C(=O)CN(C)C1=O [Compound 520] (cyclo([Ac4c][NMeV][d(β3hA)][NMeL]I[Sar][Sar][NMeCha][Sar][hPhe(3-Cl-4-CF3)]P)) | 0.017 µM | 0.1 to 0.5 µM
10 | CC[C@H](C)[C@@H]1NC(=O)[C@H](CC(C)C)N(C)C(=O)C[C@@H](C(=O)N2CCCCC2)N(C)C(=O)[C@H](C(C)C)N(C)C(=O)C2(CCCC2)NC(=O)[C@@H]2CCCN2C(=O)[C@H](CCc2ccc(C(F)(F)F)c(Cl)c2)NC(=O)CN(C)C(=O)[C@H](C2CCCCC2)N(C)C(=O)[C@@H]2CCN2C(=O)[C@H](C)N(C)C1=O [Compound 526] ([NMeL]I[NMeA][Aze][NMeChg][Sar][hPhe(3-Cl-4-CF3)]P[Ac5c][NMeV][NMeD]-Piperidide; lactam N-11) | 0.0066 µM | 0.1 to 0.5 µM
11 | CC[C@H](C)[C@@H]1NC(=O)[C@H](C)N(C)C(=O)C[C@@H](C(=O)N2CCCCC2)N(CC)C(=O)[C@H](C2CCCC2)N(C)C(=O)C2(CCCC2)NC(=O)[C@@H]2CCCN2C(=O)[C@H](CCc2ccc(C(F)(F)F)c(Cl)c2)NC(=O)CN(C)C(=O)[C@H](CC2CCCCC2)N(C)C(=O)CN(C)C(=O)CN(C)C1=O [Compound 532] ([NMeA]I[Sar][Sar][NMeCha][Sar][hPhe(3-Cl-4-CF3)]P[Ac5c][NMeGly(cPent)][NEtAsp]-Piperidide; lactam N-11) | 0.00048 µM | 0.05 to 0.1 µM
12 | CO[C@H](C)[C@@H]1NC(=O)[C@H](CC(C)C)N(C)C(=O)C[C@@H](C(=O)N2CCCCC2)N(C)C(=O)[C@H](C2CCCCC2)N(C)C(=O)C2(CCCC2)NC(=O)[C@@H]2CCCN2C(=O)[C@H](CCc2ccc(C(F)(F)F)c(Cl)c2)NC(=O)CN(C)C(=O)[C@H](CC2CCCCC2)N(C)C(=O)CN(C)C(=O)CN(C)C1=O [Compound 535] ([NMeL]T(Me)[Sar][Sar][NMeCha][Sar][hPhe(3-Cl-4-CF3)]P[Ac5c][NMeChg][NMeD]-Piperidide; lactam N-11) | 0.00065 µM | 0.05 to 0.1 µM
13 | CC[C@H](C)[C@@H]1NC(=O)[C@H](CC(C)C)N(C)C(=O)C[C@@H](C(=O)N2CCCCC2)N(C)C(=O)[C@H](C2CCCCC2)N(C)C(=O)C2(CCCC2)NC(=O)[C@@H]2CCCN2C(=O)[C@H](CCc2ccc(C(F)(F)F)c(Cl)c2)NC(=O)CN(C)C(=O)[C@H](CC2CCCCC2)N(CC)C(=O)CN(C)C(=O)CN(C)C1=O [Compound 543] ([NMeL]I[Sar][Sar][X6][Sar][hPhe(3-Cl-4-CF3)]P[Ac5c][NMeChg][NMeD]-Piperidide; lactam N-11) | 0.00056 µM | 0.05 to 0.1 µM
